Data from ChEMBL document CHEMBL3621142, “Discovery and Evaluation of Clinical Candidate AZD3759, a Potent, Oral Active, Central Nervous System-Penetrant, Epidermal Growth Factor Receptor Tyrosine Kinase Inhibitor” (J Med Chem, 2015).

Tested on: MDR1 (P-gp)
Assay: Efflux ratio of permeability from basolateral to apical side over apical to basolateral side in MDCK2-MDR1 cells
Assay type: ADME, cell-based, Canis lupus familiaris
Conditions: dog, MDCK-MDR1

Compound	efflux ratio
COc1cc2ncnc(Nc3cccc(Cl)c3F)c2cc1C(=O)N1CCOCC1	2.9

Tested on: BCRP
Assay: Permeability from apical to basolateral side in BCRP transfected MDCK2 cells
Assay type: ADME, cell-based, Canis lupus familiaris, MDCK-II
Conditions: dog

Compound	Papp A→B
COc1cc2ncnc(Nc3ccc(F)c(Cl)c3)c2cc1OCCCN1CCOCC1 [GEFITINIB]	4.2 ×10⁻⁶ cm/s

Tested on: not listed separately
Assay: (§1) Fraction unbound in Han Wistar rat blood at 5 uM by equilibrium dialysis method
Assay type: ADME, tissue-based
Conditions: Han Wistar

Compound	fraction unbound at 5 µM
COc1cc2ncnc(Nc3cccc(Cl)c3F)c2cc1OC(=O)N1CCN(C)C2CC21 (stereo in doubt; 1i)	0.028
COc1cc2ncnc(Nc3cccc(Cl)c3F)c2cc1OC(=O)N1CCN(C)C[C@@H]1C	0.023
COc1cc2ncnc(Nc3cccc(Cl)c3F)c2cc1C(=O)N1CCOCC1	0.17

Tested on: Blood
Assay: as §1
Assay type: ADME, tissue-based
Conditions: 5 µM

Compound	Fu
COc1cc2ncnc(Nc3cccc(Cl)c3F)c2cc1OC(=O)N1CCN(C)C2CC21 (stereo in doubt; 1j)	2.4%

Tested on: not listed separately
Assay: (§2) Fraction unbound in Han Wistar rat brain at 5 uM by equilibrium dialysis method
Assay type: ADME, tissue-based
Conditions: Han Wistar, brain

Compound	fraction unbound at 5 µM
COc1cc2ncnc(Nc3ccc(F)c(Cl)c3)c2cc1OCCCN1CCOCC1 [GEFITINIB]	0.0039
COc1cc2ncnc(Nc3cccc(Cl)c3F)c2cc1OC(=O)N1CCN(C)C2CC21 (stereo in doubt; 1i)	0.019
COc1cc2ncnc(Nc3cccc(Cl)c3F)c2cc1OC(=O)N1CCN(C)C[C@@H]1C	0.015
COc1cc2ncnc(Nc3cccc(Cl)c3F)c2cc1C(=O)N1CCOCC1	0.088

Tested on: Brain
Assay: as §2
Assay type: ADME, tissue-based
Conditions: 5 µM

Compound	Fu
COc1cc2ncnc(Nc3cccc(Cl)c3F)c2cc1OC(=O)N1CCN(C)C2CC21 (stereo in doubt; 1j)	1.8%

Tested on: not listed separately
Assay: Ratio of unbound AUC (0 to 24 hrs) in brain to blood of Han Wistar rat at 20 mg/kg, po by LC-MS/MS analysis
Assay type: ADME, organism-based
Conditions: brain and blood, read-out: K(p,uu,brain)

Compound	Kp uu
COc1cc2ncnc(Nc3ccc(F)c(Cl)c3)c2cc1OCCCN1CCOCC1 [GEFITINIB]	0.021

Tested on: not listed separately
Assay: Ratio of unbound AUC (0 to 24 hrs) in CSF to blood of Han Wistar rat at 20 mg/kg, po by LC-MS/MS analysis
Assay type: ADME, organism-based
Conditions: CSF and blood

Compound	Kp uu
COc1cc2ncnc(Nc3ccc(F)c(Cl)c3)c2cc1OCCCN1CCOCC1 [GEFITINIB]	0.088

Tested on: not listed separately
Assay: (§3) Oral bioavailability in Han Wistar rat at 2 mg/kg
Assay type: ADME, organism-based
Conditions: Han Wistar, in vivo

Compound	bioavailability
COc1cc2ncnc(Nc3cccc(Cl)c3F)c2cc1OC(=O)N1CCN(C)C[C@@H]1C	83%

Tested on: Rattus norvegicus
Assay: as §3
Assay type: ADME, organism-based
Conditions: in vivo

Compound	F
COc1cc2ncnc(Nc3cccc(Cl)c3F)c2cc1OC(=O)N1CCN(C)C2CC21 (stereo in doubt; 1i)	52%
COc1cc2ncnc(Nc3cccc(Cl)c3F)c2cc1OC(=O)N1CCN(C)C2CC21 (stereo in doubt; 1j)	84%

Target: Epidermal growth factor receptor (Homo sapiens, UniProt P00533, L858R)
Sequence (P00533 25-1210 L858R limits assumed): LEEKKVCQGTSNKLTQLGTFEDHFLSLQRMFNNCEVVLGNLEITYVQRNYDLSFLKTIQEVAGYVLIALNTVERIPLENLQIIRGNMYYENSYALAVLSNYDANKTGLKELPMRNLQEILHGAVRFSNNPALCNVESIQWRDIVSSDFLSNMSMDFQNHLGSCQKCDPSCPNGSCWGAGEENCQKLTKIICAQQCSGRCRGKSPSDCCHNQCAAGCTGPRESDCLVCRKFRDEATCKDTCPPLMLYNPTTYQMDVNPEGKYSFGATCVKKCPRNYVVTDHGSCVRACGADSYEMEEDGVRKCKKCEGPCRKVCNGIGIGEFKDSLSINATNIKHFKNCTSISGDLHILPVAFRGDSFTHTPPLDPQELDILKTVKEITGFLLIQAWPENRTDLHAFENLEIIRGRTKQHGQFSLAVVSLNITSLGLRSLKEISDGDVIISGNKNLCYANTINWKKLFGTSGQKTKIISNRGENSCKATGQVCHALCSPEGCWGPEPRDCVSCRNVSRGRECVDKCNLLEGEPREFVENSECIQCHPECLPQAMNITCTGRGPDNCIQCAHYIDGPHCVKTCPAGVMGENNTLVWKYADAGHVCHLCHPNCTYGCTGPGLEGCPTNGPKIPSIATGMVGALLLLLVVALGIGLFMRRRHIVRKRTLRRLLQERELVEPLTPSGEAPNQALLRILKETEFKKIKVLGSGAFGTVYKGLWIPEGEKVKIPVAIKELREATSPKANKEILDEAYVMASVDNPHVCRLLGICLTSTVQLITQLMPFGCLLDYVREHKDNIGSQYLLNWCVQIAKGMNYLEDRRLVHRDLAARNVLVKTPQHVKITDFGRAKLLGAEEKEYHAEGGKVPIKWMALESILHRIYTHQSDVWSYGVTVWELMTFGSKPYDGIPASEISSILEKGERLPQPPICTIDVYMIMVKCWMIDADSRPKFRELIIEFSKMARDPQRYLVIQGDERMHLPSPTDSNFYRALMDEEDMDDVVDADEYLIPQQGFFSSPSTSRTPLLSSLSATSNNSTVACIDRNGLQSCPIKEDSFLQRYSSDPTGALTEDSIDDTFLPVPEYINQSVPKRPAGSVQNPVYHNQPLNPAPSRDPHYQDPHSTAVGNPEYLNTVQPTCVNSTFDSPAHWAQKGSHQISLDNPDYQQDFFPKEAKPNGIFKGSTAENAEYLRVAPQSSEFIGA
Assay type: cell-based, H3255
Conditions: not given

Compound	IC50
COc1cc2ncnc(Nc3cccc(Cl)c3F)c2cc1C(=O)N1CCOCC1	166 nM

Tested on: not listed separately
Assay: AUC (0 to 7 hrs) in Han Wistar rat brain at 20 mg/kg, po measured after 0.5 to 24 hrs by LC-MS/MS analysis
Assay type: ADME, organism-based
Parameters: time < 7 hr, dose 20 mg/kg, route oral
Conditions: not given

Compound	AUC(0-t) at 7 h
COc1cc2ncnc(Nc3ccc(F)c(Cl)c3)c2cc1OCCCN1CCOCC1 [GEFITINIB]	5.65 µM·h

Tested on: not listed separately
Assay: (§4) AUC (0 to 7 hrs) in Han Wistar rat brain at 2 mg/kg, po by LC-MS/MS analysis
Assay type: ADME, organism-based
Parameters: dose 2 mg/kg, time < 7 hr, route oral
Conditions: Han Wistar, brain

Compound	AUC(0-t) at 7 h
COc1cc2ncnc(Nc3cccc(Cl)c3F)c2cc1OC(=O)N1CCN(C)C2CC21 (stereo in doubt; 1i)	0.585 µM·h
COc1cc2ncnc(Nc3cccc(Cl)c3F)c2cc1OC(=O)N1CCN(C)C[C@@H]1C	1.94 µM·h
COc1cc2ncnc(Nc3cccc(Cl)c3F)c2cc1C(=O)N1CCOCC1	0.101 µM·h

Tested on: Brain
Assay: as §4
Assay type: ADME, organism-based
Parameters: dose 2 mg/kg, time < 7 hr, route oral
Conditions: in vivo, 7 h

Compound	AUC
COc1cc2ncnc(Nc3cccc(Cl)c3F)c2cc1OC(=O)N1CCN(C)C2CC21 (stereo in doubt; 1j)	0.727 µM·h

Tested on: not listed separately
Assay: AUC (0 to 7 hrs) in Han Wistar rat CSF at 20 mg/kg, po measured after 0.5 to 24 hrs by LC-MS/MS analysis
Assay type: ADME, organism-based, Cerebrospinal fluid
Parameters: time < 7 hr, dose 20 mg/kg, route oral
Conditions: not given

Compound	AUC(0-t) at 7 h
COc1cc2ncnc(Nc3ccc(F)c(Cl)c3)c2cc1OCCCN1CCOCC1 [GEFITINIB]	0.093 µM·h

Tested on: not listed separately
Assay: (§5) AUC (0 to 7 hrs) in Han Wistar rat CSF at 2 mg/kg, po by LC-MS/MS analysis
Assay type: ADME, organism-based, Cerebrospinal fluid
Parameters: time < 7 hr, dose 2 mg/kg, route oral
Conditions: Han Wistar, CSF

Compound	AUC(0-t) at 7 h
COc1cc2ncnc(Nc3cccc(Cl)c3F)c2cc1OC(=O)N1CCN(C)C2CC21 (stereo in doubt; 1i)	0.019 µM·h
COc1cc2ncnc(Nc3cccc(Cl)c3F)c2cc1OC(=O)N1CCN(C)C[C@@H]1C	0.048 µM·h
COc1cc2ncnc(Nc3cccc(Cl)c3F)c2cc1C(=O)N1CCOCC1	0.046 µM·h

Tested on: Cerebrospinal fluid
Assay: as §5
Assay type: ADME, organism-based
Parameters: time < 7 hr, dose 2 mg/kg, route oral
Conditions: in vivo, 7 h

Compound	AUC
COc1cc2ncnc(Nc3cccc(Cl)c3F)c2cc1OC(=O)N1CCN(C)C2CC21 (stereo in doubt; 1j)	0.028 µM·h

Tested on: not listed separately
Assay: AUC (0 to 7 hrs) in Han Wistar rat blood at 20 mg/kg, po measured after 0.5 to 24 hrs by LC-MS/MS analysis
Assay type: ADME, organism-based
Parameters: time < 7 hr, dose 20 mg/kg, route oral
Conditions: not given

Compound	AUC(0-t) at 7 h
COc1cc2ncnc(Nc3ccc(F)c(Cl)c3)c2cc1OCCCN1CCOCC1 [GEFITINIB]	31.9 µM·h

Tested on: not listed separately
Assay: (§6) AUC (0 to 7 hrs) in Han Wistar rat blood at 2 mg/kg, po by LC-MS/MS analysis
Assay type: ADME, organism-based
Parameters: dose 2 mg/kg, time < 7 hr, route oral
Conditions: Han Wistar, blood

Compound	AUC(0-t) at 7 h
COc1cc2ncnc(Nc3cccc(Cl)c3F)c2cc1OC(=O)N1CCN(C)C2CC21 (stereo in doubt; 1i)	0.786 µM·h
COc1cc2ncnc(Nc3cccc(Cl)c3F)c2cc1OC(=O)N1CCN(C)C[C@@H]1C	0.805 µM·h
COc1cc2ncnc(Nc3cccc(Cl)c3F)c2cc1C(=O)N1CCOCC1	1.63 µM·h

Tested on: Blood
Assay: as §6
Assay type: ADME, organism-based
Parameters: dose 2 mg/kg, time < 7 hr, route oral
Conditions: in vivo, 7 h

Compound	AUC
COc1cc2ncnc(Nc3cccc(Cl)c3F)c2cc1OC(=O)N1CCN(C)C2CC21 (stereo in doubt; 1j)	0.74 µM·h

Tested on: not listed separately
Assay: Ratio of unbound AUC (0 to 7 hrs) in brain to blood of Han Wistar rat at 2 mg/kg, po by LC-MS/MS analysis
Assay type: ADME, organism-based
Conditions: Han Wistar, brain and blood, read-out: K(p,uu,brain)

Compound	Kp uu
COc1cc2ncnc(Nc3cccc(Cl)c3F)c2cc1OC(=O)N1CCN(C)C2CC21 (stereo in doubt; 1i)	0.51
COc1cc2ncnc(Nc3cccc(Cl)c3F)c2cc1OC(=O)N1CCN(C)C[C@@H]1C	1.6
COc1cc2ncnc(Nc3cccc(Cl)c3F)c2cc1C(=O)N1CCOCC1	0.03

Same assay, conditions: brain

Compound	K(p,uu,brain)
COc1cc2ncnc(Nc3cccc(Cl)c3F)c2cc1OC(=O)N1CCN(C)C2CC21 (stereo in doubt; 1j)	0.74

Tested on: not listed separately
Assay: Ratio of unbound AUC (0 to 7 hrs) in CSF to blood of Han Wistar rat at 2 mg/kg, po by LC-MS/MS analysis
Assay type: ADME, organism-based
Conditions: Han Wistar, CSF and blood

Compound	Kp uu
COc1cc2ncnc(Nc3cccc(Cl)c3F)c2cc1OC(=O)N1CCN(C)C2CC21 (stereo in doubt; 1i)	0.9
COc1cc2ncnc(Nc3cccc(Cl)c3F)c2cc1OC(=O)N1CCN(C)C[C@@H]1C	2.6
COc1cc2ncnc(Nc3cccc(Cl)c3F)c2cc1C(=O)N1CCOCC1	0.16

Same assay, conditions: csf

Compound	K(p,uu,CSF)
COc1cc2ncnc(Nc3cccc(Cl)c3F)c2cc1OC(=O)N1CCN(C)C2CC21 (stereo in doubt; 1j)	1.6

Tested on: not listed separately
Assay: (§7) Elimination half life in Han Wistar rat at 1 mg/kg, iv
Assay type: ADME, organism-based
Conditions: Han Wistar, in vivo, read-out: beta t1/2 (converted)

Compound	half-life
COc1cc2ncnc(Nc3cccc(Cl)c3F)c2cc1OC(=O)N1CCN(C)C2CC21 (stereo in doubt; 1i)	0.9 h
COc1cc2ncnc(Nc3cccc(Cl)c3F)c2cc1OC(=O)N1CCN(C)C[C@@H]1C	2.4 h

Tested on: Rattus norvegicus
Assay: as §7
Assay type: ADME, organism-based
Conditions: in vivo

Compound	beta t1/2
COc1cc2ncnc(Nc3cccc(Cl)c3F)c2cc1OC(=O)N1CCN(C)C2CC21 (stereo in doubt; 1j)	1.3 h

Tested on: not listed separately
Assay: Clearance in Han Wistar rat at 1 mg/kg, iv
Assay type: ADME, organism-based
Conditions: in vivo

Compound	clearance
COc1cc2ncnc(Nc3cccc(Cl)c3F)c2cc1OC(=O)N1CCN(C)C2CC21 (stereo in doubt; 1i)	28 mL/min/kg
COc1cc2ncnc(Nc3cccc(Cl)c3F)c2cc1OC(=O)N1CCN(C)C[C@@H]1C	29 mL/min/kg

Tested on: not listed separately
Assay: (§8) Volume of distribution at steady state in Han Wistar rat at 1 mg/kg, iv
Assay type: ADME, organism-based
Conditions: Han Wistar, in vivo, read-out: Vdss

Compound	Vd
COc1cc2ncnc(Nc3cccc(Cl)c3F)c2cc1OC(=O)N1CCN(C)C2CC21 (stereo in doubt; 1i)	2 L/kg
COc1cc2ncnc(Nc3cccc(Cl)c3F)c2cc1OC(=O)N1CCN(C)C[C@@H]1C	2.7 L/kg

Tested on: Rattus norvegicus
Assay: as §8
Assay type: ADME, organism-based
Conditions: in vivo

Compound	Vdss
COc1cc2ncnc(Nc3cccc(Cl)c3F)c2cc1OC(=O)N1CCN(C)C2CC21 (stereo in doubt; 1j)	2.5 L/kg

Tested on: not listed separately
Assay: (§9) AUC(0 to 24 hrs) in Han Wistar rat at 2 mg/kg, po
Assay type: ADME, organism-based
Parameters: dose 2 mg/kg, time < 24 hr, route oral
Conditions: Han Wistar, in vivo

Compound	AUC(0-t) at 24 h
COc1cc2ncnc(Nc3cccc(Cl)c3F)c2cc1OC(=O)N1CCN(C)C2CC21 (stereo in doubt; 1i)	1.57 µM·h
COc1cc2ncnc(Nc3cccc(Cl)c3F)c2cc1OC(=O)N1CCN(C)C[C@@H]1C	2.95 µM·h

Tested on: Rattus norvegicus
Assay: as §9
Assay type: ADME, organism-based
Parameters: dose 2 mg/kg, time < 24 hr, route oral
Conditions: in vivo, 24 h

Compound	AUC
COc1cc2ncnc(Nc3cccc(Cl)c3F)c2cc1OC(=O)N1CCN(C)C2CC21 (stereo in doubt; 1j)	2.315 µM·h

Tested on: not listed separately
Assay: Permeability from apical to basolateral side in MDCK2-MDR1 cells
Assay type: ADME, cell-based, Canis lupus familiaris, MDCK-II
Conditions: dog, MDCK-MDR1

Compound	Papp A→B
COc1cc2ncnc(Nc3ccc(F)c(Cl)c3)c2cc1OCCCN1CCOCC1 [GEFITINIB]	8.3 ×10⁻⁶ cm/s
COc1cc2ncnc(Nc3cccc(Cl)c3F)c2cc1OC(=O)N1CCN(C)C2CC21 (stereo in doubt; 1i)	67 ×10⁻⁶ cm/s
COc1cc2ncnc(Nc3cccc(Cl)c3F)c2cc1OC(=O)N1CCN(C)C[C@@H]1C	51 ×10⁻⁶ cm/s
COc1cc2ncnc(Nc3cccc(Cl)c3F)c2cc1C(=O)N1CCOCC1	28 ×10⁻⁶ cm/s

Same assay, conditions: dog, mdck-ii

Compound	Papp
COc1cc2ncnc(Nc3cccc(Cl)c3F)c2cc1OC(=O)N1CCN(C)C2CC21 (stereo in doubt; 1j)	76 ×10⁻⁶ cm/s
